Assay results from ChEMBL document CHEMBL2074075, “Functional assay of multidrug resistant cells using JC-1, a carbocyanine fluorescent probe” (Leukemia, 1997).

What was measured:
[1] = target: T1, ATP-dependent translocase ABCB1 (Homo sapiens, UniProt P08183); assay: TP_TRANSPORTER: spectrofluorimetric analysis (intracellular accumulation) in K562 and K562/ADR cells; assay type: functional, cell-based
[2] = target: T1, ATP-dependent translocase ABCB1; assay: TP_TRANSPORTER: inhibition of JC-1 uptake (JC-1: ca 0.1 uM, S9788: 5 uM) in K562 and K562/ADR cells, flow cytometry; assay type: functional, cell-based

T1 sequence (P08183 whole entry): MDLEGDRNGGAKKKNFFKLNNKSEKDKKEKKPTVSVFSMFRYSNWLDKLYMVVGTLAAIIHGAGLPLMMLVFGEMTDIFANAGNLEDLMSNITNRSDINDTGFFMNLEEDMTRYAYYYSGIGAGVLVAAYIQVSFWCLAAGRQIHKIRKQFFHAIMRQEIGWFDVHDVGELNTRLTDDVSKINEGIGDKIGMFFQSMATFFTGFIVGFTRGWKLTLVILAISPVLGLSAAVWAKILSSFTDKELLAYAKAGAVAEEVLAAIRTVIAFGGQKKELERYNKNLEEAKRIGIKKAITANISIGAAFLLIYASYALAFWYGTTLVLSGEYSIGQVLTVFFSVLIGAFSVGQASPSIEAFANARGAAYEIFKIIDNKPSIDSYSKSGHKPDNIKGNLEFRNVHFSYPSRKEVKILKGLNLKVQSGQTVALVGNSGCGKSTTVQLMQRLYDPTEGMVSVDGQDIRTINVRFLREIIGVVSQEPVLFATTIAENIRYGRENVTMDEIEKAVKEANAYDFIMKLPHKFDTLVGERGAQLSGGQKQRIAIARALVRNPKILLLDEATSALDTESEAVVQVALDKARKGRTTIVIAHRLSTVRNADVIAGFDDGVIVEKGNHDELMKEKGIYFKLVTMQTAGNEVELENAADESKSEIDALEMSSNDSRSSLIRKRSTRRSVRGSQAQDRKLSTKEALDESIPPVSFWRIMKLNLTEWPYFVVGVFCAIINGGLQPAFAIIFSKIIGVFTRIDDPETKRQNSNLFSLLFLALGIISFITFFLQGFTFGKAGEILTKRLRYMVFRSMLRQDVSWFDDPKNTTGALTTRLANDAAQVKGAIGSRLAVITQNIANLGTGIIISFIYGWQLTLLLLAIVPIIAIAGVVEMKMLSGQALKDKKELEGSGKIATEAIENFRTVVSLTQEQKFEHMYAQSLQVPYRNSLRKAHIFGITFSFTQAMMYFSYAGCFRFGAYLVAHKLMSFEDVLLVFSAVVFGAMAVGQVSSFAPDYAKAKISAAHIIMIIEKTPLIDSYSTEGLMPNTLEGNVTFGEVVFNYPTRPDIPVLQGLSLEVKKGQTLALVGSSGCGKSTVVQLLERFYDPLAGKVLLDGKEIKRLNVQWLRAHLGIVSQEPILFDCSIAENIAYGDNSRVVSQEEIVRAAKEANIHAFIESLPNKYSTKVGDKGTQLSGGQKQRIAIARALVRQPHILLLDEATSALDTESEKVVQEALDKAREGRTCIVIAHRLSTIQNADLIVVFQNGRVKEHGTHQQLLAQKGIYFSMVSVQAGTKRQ

SMILES | Activity [1] | Activity [2]
CCN1C(=C/C=C/c2n(CC)c3cc(Cl)c(Cl)cc3[n+]2CC)N(CC)c2cc(Cl)c(Cl)cc21.[I-] | substrate [+] | –
C=CCNc1nc(NCC=C)nc(N2CCC(NCC(c3ccc(F)cc3)c3ccc(F)cc3)CC2)n1 | – | inhibitor [+]
